Source: PMC4774911, “Biochemical Screening of Five Protein Kinases from Plasmodium falciparum against 14,000 Cell-Active Compounds” (PLoS ONE, 2016)
Where “and” joins values, the source holds several entries; their conditions need not be identical. Equal entries are not always repeated. Where two headings read alike, the source gives them in different places.

Experiments:
[1] = molecular target: T1, PRKD3 (Homo sapiens, UniProt O94806); experiment: biochemical; parameters: endogenous in cells; host or cells: K562 cell extract; species or system K562 (extract); replicate k of n = 2 (each experiment ID is one independent experiment; two experiment IDs per compound); settings: read-out: KDapp
T1 sequence (O94806 1-890): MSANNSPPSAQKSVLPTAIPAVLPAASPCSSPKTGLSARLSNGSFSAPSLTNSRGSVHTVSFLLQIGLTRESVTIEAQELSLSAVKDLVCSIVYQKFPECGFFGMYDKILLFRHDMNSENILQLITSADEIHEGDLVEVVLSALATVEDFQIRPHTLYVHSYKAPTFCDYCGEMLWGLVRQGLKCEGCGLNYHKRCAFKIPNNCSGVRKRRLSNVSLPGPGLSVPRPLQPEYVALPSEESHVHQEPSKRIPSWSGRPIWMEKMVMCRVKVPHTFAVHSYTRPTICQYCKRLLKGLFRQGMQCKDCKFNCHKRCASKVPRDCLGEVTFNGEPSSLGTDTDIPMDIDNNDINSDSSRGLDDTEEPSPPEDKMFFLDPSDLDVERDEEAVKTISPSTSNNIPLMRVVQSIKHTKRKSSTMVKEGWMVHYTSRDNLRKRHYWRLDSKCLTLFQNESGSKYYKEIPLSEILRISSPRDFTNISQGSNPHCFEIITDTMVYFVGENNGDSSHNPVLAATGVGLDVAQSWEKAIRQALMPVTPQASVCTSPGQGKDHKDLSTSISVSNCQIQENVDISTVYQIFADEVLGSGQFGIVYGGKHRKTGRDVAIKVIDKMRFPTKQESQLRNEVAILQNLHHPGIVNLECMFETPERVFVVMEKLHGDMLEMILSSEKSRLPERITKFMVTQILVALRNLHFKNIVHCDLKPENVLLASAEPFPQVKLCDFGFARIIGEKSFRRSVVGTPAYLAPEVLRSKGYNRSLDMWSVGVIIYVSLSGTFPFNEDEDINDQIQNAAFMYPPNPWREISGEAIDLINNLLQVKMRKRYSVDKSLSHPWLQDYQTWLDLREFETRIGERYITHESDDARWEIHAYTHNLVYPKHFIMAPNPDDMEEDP

[2] = molecular target: T2, PRKD2 (Homo sapiens, UniProt Q9BZL6); experiment: biochemical; parameters: endogenous in cells; host or cells: K562 cell extract; species or system K562 (extract); replicate k of n = 2 (each experiment ID is one independent experiment; two experiment IDs per compound); settings: read-out: KDapp
T2 sequence (Q9BZL6 1-878): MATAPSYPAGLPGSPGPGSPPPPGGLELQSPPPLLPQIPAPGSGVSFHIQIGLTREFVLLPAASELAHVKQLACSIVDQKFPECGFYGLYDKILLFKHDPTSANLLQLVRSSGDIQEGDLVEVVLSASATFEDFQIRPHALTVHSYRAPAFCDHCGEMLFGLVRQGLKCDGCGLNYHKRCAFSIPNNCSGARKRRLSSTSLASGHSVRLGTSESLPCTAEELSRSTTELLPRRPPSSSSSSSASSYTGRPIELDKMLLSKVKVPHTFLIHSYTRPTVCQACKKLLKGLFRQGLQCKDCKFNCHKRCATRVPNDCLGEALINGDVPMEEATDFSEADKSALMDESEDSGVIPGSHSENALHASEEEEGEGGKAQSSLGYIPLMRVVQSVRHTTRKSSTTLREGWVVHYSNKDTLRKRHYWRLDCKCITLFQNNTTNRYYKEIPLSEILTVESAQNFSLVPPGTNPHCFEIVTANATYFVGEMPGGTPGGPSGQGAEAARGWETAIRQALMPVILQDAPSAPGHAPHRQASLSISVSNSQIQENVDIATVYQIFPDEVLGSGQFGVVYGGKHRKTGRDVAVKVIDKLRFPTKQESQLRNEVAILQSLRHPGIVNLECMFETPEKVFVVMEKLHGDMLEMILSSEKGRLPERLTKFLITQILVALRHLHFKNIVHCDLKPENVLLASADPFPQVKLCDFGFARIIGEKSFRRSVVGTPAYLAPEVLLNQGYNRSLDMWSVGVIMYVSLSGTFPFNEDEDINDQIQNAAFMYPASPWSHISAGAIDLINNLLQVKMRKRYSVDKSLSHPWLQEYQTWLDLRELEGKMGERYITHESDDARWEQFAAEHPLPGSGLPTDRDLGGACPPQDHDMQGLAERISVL

[3] = molecular target: CDC42BPG (Homo sapiens, UniProt Q6DT37); experiment: biochemical; parameters: endogenous in cells; host or cells: K562 cell extract; species or system K562 (extract); replicate k of n = 2 (each experiment ID is one independent experiment; two experiment IDs per compound); settings: read-out: KDapp
Chain of CDC42BPG (Q6DT37 whole entry): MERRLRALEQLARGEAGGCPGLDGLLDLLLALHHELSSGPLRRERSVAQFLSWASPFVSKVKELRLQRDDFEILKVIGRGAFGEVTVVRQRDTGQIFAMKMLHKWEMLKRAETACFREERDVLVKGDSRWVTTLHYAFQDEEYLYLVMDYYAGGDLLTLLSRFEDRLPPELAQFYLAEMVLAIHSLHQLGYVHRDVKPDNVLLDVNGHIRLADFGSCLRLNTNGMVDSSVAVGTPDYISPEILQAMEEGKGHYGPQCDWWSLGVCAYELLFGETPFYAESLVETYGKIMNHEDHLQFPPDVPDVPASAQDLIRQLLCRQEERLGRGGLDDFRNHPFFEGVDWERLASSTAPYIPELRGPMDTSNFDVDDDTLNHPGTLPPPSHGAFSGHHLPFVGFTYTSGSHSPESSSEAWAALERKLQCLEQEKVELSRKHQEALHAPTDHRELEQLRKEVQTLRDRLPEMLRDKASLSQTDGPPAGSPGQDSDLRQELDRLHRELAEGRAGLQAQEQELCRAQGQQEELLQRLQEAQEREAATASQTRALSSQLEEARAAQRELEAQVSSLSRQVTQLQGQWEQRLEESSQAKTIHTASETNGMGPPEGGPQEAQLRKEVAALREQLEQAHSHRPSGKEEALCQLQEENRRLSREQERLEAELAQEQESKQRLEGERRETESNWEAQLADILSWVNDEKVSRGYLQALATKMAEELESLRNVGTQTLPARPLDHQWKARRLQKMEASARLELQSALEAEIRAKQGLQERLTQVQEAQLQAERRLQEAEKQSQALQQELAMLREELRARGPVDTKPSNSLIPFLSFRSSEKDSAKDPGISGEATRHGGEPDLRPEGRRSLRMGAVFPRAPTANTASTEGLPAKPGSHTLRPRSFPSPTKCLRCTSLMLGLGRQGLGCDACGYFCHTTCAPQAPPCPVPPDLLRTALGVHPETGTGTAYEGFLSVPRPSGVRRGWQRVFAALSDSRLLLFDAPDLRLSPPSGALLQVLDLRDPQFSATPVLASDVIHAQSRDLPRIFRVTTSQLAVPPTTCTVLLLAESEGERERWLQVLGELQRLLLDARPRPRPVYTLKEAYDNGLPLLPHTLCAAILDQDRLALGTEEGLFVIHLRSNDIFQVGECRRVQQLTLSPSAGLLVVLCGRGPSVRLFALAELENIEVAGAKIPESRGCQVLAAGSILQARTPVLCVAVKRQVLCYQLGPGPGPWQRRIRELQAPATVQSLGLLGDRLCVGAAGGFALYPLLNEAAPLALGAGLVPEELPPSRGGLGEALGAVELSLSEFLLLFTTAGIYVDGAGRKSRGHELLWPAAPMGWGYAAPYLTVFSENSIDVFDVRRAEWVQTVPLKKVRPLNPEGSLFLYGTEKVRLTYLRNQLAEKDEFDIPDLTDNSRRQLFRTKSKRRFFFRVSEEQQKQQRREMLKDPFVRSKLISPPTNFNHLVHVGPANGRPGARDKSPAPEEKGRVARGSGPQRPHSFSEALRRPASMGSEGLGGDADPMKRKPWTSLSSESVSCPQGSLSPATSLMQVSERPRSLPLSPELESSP

[4] = molecular target: TNIK (Homo sapiens, UniProt Q9UKE5); experiment: biochemical; parameters: endogenous in cells; host or cells: K562 cell extract; species or system K562 (extract); replicate k of n = 2 (each experiment ID is one independent experiment; two experiment IDs per compound); settings: read-out: KDapp
[5] = molecular target: GSK3B (Homo sapiens, UniProt P49841); experiment: biochemical; parameters: endogenous in cells; host or cells: K562 cell extract; species or system K562 (extract); replicate k of n = 2 (each experiment ID is one independent experiment; two experiment IDs per compound); settings: read-out: KDapp
Chain of GSK3B (P49841 whole entry): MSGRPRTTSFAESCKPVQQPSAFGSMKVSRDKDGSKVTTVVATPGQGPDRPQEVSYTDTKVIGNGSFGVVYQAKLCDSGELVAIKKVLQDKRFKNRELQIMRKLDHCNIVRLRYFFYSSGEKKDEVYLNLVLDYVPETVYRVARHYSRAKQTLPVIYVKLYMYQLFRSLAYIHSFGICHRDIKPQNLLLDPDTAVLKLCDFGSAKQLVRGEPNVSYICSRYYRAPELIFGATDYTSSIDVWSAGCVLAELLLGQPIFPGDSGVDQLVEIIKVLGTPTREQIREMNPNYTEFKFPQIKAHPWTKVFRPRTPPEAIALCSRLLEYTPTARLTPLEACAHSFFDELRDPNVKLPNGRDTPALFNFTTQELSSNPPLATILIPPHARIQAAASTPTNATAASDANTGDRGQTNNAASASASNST

[6] = molecular target: STK10 (Homo sapiens, UniProt O94804); experiment: biochemical; parameters: endogenous in cells; host or cells: K562 cell extract; species or system K562 (extract); replicate k of n = 2 (each experiment ID is one independent experiment; two experiment IDs per compound); settings: read-out: KDapp
Chain of STK10 (O94804 whole entry): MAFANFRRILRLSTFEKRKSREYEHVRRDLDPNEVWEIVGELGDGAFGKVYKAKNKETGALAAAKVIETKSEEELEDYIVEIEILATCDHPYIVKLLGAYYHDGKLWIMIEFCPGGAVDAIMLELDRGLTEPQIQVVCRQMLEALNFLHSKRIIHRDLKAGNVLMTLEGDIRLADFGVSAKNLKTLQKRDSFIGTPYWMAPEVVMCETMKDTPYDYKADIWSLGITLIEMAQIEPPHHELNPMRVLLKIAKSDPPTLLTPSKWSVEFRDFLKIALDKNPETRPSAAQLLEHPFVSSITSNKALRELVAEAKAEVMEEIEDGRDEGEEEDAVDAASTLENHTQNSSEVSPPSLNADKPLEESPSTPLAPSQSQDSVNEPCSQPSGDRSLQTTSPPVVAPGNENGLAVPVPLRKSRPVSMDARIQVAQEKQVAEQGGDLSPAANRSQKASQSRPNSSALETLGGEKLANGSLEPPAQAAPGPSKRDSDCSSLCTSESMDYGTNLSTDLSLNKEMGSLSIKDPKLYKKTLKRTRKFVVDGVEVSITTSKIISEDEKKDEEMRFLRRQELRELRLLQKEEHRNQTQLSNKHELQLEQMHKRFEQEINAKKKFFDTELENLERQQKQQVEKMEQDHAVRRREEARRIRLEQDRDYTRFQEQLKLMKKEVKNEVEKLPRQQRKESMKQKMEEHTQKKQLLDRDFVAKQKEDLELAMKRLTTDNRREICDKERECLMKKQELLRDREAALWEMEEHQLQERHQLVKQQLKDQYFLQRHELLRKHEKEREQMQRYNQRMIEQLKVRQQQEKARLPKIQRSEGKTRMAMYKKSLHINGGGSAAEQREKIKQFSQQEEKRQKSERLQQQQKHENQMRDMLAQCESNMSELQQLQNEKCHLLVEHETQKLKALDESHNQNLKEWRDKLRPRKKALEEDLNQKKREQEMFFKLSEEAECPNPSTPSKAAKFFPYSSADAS

[7] = molecular target: CIT (Homo sapiens, UniProt O14578); experiment: biochemical; parameters: endogenous in cells; host or cells: K562 cell extract; species or system K562 (extract); replicate k of n = 2 (each experiment ID is one independent experiment; two experiment IDs per compound); settings: read-out: KDapp
Chain of CIT (O14578 whole entry): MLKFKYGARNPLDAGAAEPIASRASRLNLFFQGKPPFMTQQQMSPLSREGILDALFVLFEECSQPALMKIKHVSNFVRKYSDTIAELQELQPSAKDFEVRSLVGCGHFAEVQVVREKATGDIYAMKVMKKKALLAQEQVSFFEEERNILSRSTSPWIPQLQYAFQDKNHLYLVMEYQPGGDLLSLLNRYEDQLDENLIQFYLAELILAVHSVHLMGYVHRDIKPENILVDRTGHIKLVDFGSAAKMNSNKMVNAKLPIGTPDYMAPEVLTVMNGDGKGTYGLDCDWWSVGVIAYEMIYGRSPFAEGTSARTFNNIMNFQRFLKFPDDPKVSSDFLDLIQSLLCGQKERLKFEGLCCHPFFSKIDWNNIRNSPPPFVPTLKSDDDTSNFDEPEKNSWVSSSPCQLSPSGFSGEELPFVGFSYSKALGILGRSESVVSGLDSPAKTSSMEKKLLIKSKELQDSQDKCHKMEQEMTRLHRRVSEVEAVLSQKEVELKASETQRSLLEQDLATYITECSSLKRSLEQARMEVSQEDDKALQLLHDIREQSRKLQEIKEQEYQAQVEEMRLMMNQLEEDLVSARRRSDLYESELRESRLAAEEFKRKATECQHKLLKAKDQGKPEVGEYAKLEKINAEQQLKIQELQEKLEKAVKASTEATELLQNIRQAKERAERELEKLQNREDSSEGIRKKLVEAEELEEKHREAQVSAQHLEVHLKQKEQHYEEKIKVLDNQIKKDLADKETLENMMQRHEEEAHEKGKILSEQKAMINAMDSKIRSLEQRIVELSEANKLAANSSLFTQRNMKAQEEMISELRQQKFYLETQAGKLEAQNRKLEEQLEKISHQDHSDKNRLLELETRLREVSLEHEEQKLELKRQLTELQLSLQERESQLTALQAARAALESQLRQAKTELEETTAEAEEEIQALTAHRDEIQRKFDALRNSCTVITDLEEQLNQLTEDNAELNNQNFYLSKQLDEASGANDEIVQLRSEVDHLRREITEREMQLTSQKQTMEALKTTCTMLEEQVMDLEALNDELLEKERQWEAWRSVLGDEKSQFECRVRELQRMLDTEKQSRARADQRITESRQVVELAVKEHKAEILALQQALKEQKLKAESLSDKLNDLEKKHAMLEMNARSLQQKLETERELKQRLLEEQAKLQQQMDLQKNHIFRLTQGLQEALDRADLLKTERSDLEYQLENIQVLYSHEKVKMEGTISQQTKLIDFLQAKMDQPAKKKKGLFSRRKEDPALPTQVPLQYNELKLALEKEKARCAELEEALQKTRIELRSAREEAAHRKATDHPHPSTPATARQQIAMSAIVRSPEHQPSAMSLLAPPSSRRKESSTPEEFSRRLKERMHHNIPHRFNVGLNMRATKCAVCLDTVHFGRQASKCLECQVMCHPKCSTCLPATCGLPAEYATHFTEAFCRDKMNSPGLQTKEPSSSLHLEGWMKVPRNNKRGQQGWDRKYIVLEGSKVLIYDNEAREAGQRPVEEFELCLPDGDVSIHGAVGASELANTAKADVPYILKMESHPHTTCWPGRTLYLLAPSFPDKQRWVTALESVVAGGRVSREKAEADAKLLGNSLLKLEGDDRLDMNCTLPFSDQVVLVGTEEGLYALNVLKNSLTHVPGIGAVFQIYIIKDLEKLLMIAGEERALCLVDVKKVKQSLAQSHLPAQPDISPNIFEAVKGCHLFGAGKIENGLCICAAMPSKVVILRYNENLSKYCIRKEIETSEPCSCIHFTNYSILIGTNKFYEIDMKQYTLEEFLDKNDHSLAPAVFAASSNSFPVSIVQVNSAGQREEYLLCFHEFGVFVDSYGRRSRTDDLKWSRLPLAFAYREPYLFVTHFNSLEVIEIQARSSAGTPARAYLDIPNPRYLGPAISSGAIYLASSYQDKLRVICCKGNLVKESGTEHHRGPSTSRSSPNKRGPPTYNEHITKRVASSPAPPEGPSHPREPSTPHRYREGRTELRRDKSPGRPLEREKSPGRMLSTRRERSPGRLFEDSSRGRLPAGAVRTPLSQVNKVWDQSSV

[8] = tested on: HepG2 cells; settings: cited from earlier work
[9] = tested on: human kinases in K562 cell extract; experiment: Kinobead competition assay, kinome-wide summary; format: binding; settings: for Human kinases with apparent pKd ≥ 4.7 (N = 2) / Human kinases with apparent pKd ≥ 6 (N = 2): K562 extract, number of kinases, 20 μM-0.03 μM compound
Description: Kinobeads were prepared as described.

Row | SMILES | Kd [1] | Kd [2] | Kd [3] | Kd [4] | Kd [5] | Kd [6] | Kd [7] | Inhibition of HepG2 cell growth at 10 μM [8] | PCT_INHIB_HEPG2 ([8]; HepG2 cells, ref ChEMBL) | Human kinases with apparent pKd ≥ 4.7 (N = 2) [9] | Human kinases with apparent pKd ≥ 6 (N = 2) [9] | PCT_INHIB_HEPG2 ([8]; HepG2 cells, downloaded from ChEMBL ref F.J. Gamo et al., Nature 2010) | PCT_INHIB_HEPG2 ([8]; HepG2, downloaded from ChEMBL, ref F.J. Gamo et al., Nature 2010) | Share of human kinases tested bound with high affinity (pKd ≥ 6) ([9]; K562 extract kinobeads)
1 | CN(C)CC(O)COc1ccc(Nc2ncc([N+](=O)[O-])c(Nc3ccccc3O)n2)cc1.O=C(O)C(F)(F)F (stereo not shown) [TCMDC-141399] | 4090 nM and 3410 nM | 921 nM | 8140 nM | 378 nM | 3000 nM and 3930 nM | 3360 nM | 3750 nM | 47% | 47 | 63 | 24 | – | – | –
2 | Cl.NCC1(c2nc(-c3ccc(Cl)c(O)c3)c(-c3ccncc3)[nH]2)CCCCC1 [TCMDC-141154] | 3910 nM | 2520 nM and 2080 nM | 6790 nM | 134 nM | 2750 nM | 30.4 nM | 137 nM and 239 nM | 48% | – | 47 | 26 | 48 | – | –
3 | CN1CCN(c2ccc(Nc3ncc(C#N)c(Nc4ccccc4C(N)=O)n3)cc2)CC1.Cl [TCMDC-134116] | 166 nM | 165 nM and 160 nM | 848 nM | 92.2 nM and 115 nM | 857 nM and 535 nM | 25.6 nM and 49.6 nM | 4860 nM and 4950 nM | 43% | – | 126 | 96 | – | 43% | two thirds
